Reference: US12350247B2, “Use of APE1/Ref-1 inhibitors for treatment of retinal diseases” (Indiana University Research and Technology Corporation, priority 2017, dated 2025)

Key:
[1] = test system: HCT-116 colon cancer cells; experiment: Killing of colon cancer cells by APX3330 combined with CPI-613 (Example 4); assay type: cell-based, human; settings: 0.2, 0.8, 1.6, 3.1, 6.3 μM APX3330 combined with 100 and 75 μM CPI-613
Protocol: Standard 3D co-culture assays as described in Example 2 were used to evaluate the cytotoxicity of the combination on tumor cells as well as cancer-associated fibroblasts.
As shown in FIGS. 15A-15C, there was greater than 50% killing of HCT-116 colon cancer cells using 0.2, 0.8, 1.6, 3.1, 6.3 μM APX3330 when combined with 100 and 75 μM CPI-613.

[2] = test system: human carcinoma colon cell line HCT-116; experiment: Alamar blue cytotoxicity combination assay (CalcuSyn); assay type: cell-based
Protocol: HTC-116 (Yunhua Liu) was seeded in a 96-well tissue culture plate at 2000 cells/well in DMEM+10% FBS and grown overnight at 37° C., 5% CO2. Drug Media DMEM+5% FBS was added at dosages of APX3330 (Apexian) in a 5-point spread from 75 uM to 6.3 uM and spiked with CPI-613 (Apexbio Technology) at 75 uM, or 50 uM, or alone for single agent. Cells were incubated for 72 hours at 37° C., 5% CO2. Media was exchanged with DMEM+5% FBS+10% Alamar blue fluorescent cell viability indicator (INVITROGEN™) and incubated 4 hours at 37° C., 5% CO2 and then read on a fluorescent reader (SYNERGY™ H4 BioTek). […] depicts Chou-Talalay Index (CI) of dose combinations (CalcuSyn). FIG. 32E depicts synergistic drug combinations (CalcuSyn) of APX3330 spiked with 50 uM CPI-613 or 75 uM CPI-613. […] Data shown is the average of 3 separate cytotoxicity assays; each assay normalized to media only control.
HTC-116 (Yunhua Liu) was seeded in a 96-well tissue culture plate at 2000 cells/well in DMEM+10% FBS and grown overnight at 37° C., 5% CO2. Drug Media DMEM+5% FBS was added at dosages of APX3330 (Apexian) from 100 uM to 0.4 uM in a 10-point spread and spiked with CPI-613 (Apexbio Technology) at 100 uM, or 75 uM, or alone for single agent. Cells were incubated for 72 hours at 37° C., 5% CO2. Media was exchanged with DMEM+5% FBS+10% Alamar blue fluorescent cell viability indicator (INVITROGEN™) and incubated 4 hours at 37° C., 5% CO2 and then read on a fluorescent reader (SYNERGY™ H4 BioTek). […] FIG. 33D depicts Chou-Talalay Index (CI) of dose combinations (CalcuSyn). FIG. 33E depicts synergistic drug combinations (CalcuSyn) of APX3330 spiked with 100 uM CPI-613 or 75 uM CPI-613. […] Data shown is the average of 3 separate cytotoxicity assays; each assay normalized to media only control.
HTC-116 (Yunhua Liu) was seeded in a 96-well tissue culture plate at 2000 cells/well in DMEM+10% FBS and grown overnight at 37° C., 5% CO2. Drug Media DMEM+5% FBS was added at dosages of APX2014 (Apexian) in a 5-point spread from 25 uM to 1.6 uM and spiked with CPI-613 (Apexbio Technology) at 75 uM, or 50 uM, or alone for single agent. Cells were incubated for 72 hours at 37° C., 5% CO2. Media was exchanged with DMEM+5% FBS+10% Alamar blue fluorescent cell viability indicator (INVITROGEN™) and incubated 4 hours at 37° C., 5% CO2 and then read on a fluorescent reader (SYNERGY™ H4 BioTek). […] FIG. 34D depicts Chou-Talalay Index (CI) of dose combinations (CalcuSyn). FIG. 34E depicts synergistic drug combinations (CalcuSyn) of APX2014 spiked with 50 uM CPI-613 or 75 uM CPI-613. Drug combination synergy could not be ascertained at APX2014 dosages when spiked with 50 uM CPI-613. […] Data shown is the average of 3 separate cytotoxicity assays; each assay normalized to media only control.
HTC-116 (Yunhua Liu) was seeded in a 96-well tissue culture plate at 2000 cells/well in DMEM+10% FBS and grown overnight at 37° C., 5% CO2. Drug Media DMEM+5% FBS was added at dosages of APX3330 (Apexian) from 100 uM to 0.4 uM in a 10-point spread and spiked with CB-839 (Sigma-Aldrich) at 1000 nM, or 500 nM, or alone for single agent. Cells were incubated for 72 hours at 37° C., 5% CO2. Media was exchanged with DMEM+5% FBS+10% Alamar blue fluorescent cell viability indicator (INVITROGEN™) and incubated 4 hours at 37° C., 5% CO2 and then read on a fluorescent reader (SYNERGY™ H4 BioTek). FIG. 35A depicts APX3330 and CB-839 single agent effects. FIG. 35B depicts APX3330 and CB-839 synergistic combo effects. […] FIG. 35E depicts synergistic drug combinations (CalcuSyn) of APX3330 spiked with 1000 nM CB-839 or 500 nM CB-839 (5-pt only). […] Data shown is the average of 3 separate cytotoxicity assays; each assay normalized to media only control.

Panc10.05 = experiment: Monolayer cytotoxicity under hypoxia (alamarBlue); assay type: cell-based; settings: Homo sapiens, Panc1005, Panc10.05, N = 3, read-out: LC50 (the source's name)
Description: (§1) To determine target selectivity, analogs of APX3330, APX2009 and APX2014, and an analog of SLC-0111, FC12-531A, were used.

Pa03C = experiment: Monolayer cytotoxicity under hypoxia (alamarBlue); assay type: cell-based; settings: Homo sapiens, N = 3, read-out: LC50 (the source's name)
Description: as §1

[3] = test system: mouse C26 colon cancer cells; experiment: Colon cancer orthotopic tumors, oxaliplatin with APX3330; assay type: in vivo, mice
Protocol: Immune competent mice were injected with mouse C26 colon cancer cells in the caecum (FIG. 29A). Animals were treated with either oxaliplatin or oxaliplatin with APX3330 and tumor size determined compared to vehicle controls (FIG. 29B).

CCCCCCCCC/C(=C\C1=C(C)C(=O)C(OC)=C(OC)C1=O)C(=O)O [APX3330]
killing of HCT-116 colon cancer cells [1]: greater than 50% | drug combination synergy (Chou-Talalay, CalcuSyn) ([2]; APX3330 75 uM and 50 uM spiked with 50 uM CPI-613, 5-point spread): synergy was observed | drug combination synergy (Chou-Talalay, CalcuSyn) ([2]; APX3330 100 uM-12.5 uM spiked with 75 uM CPI-613, 10-point spread): Synergy was observed | drug combination synergy (Chou-Talalay, CalcuSyn) ([2]; APX3330 100 uM-25 uM spiked with 1000 nM CB-839): synergy was observed | drug combination synergy (Chou-Talalay, CalcuSyn) ([2]; APX3330 100 uM-50 uM spiked with 500 nM CB-839): Synergy was observed | drug combination synergy (Chou-Talalay, CalcuSyn) ([2]; all APX3330 dosages (100 uM to 0.4 uM) spiked with 100 uM CPI-613, 10-point spread): synergy was observed | drug combination synergy (Chou-Talalay, CalcuSyn) ([2]; all but one APX3330 dosage (6.3 uM), spiked with 75 uM CPI-613, 5-point spread): Synergy was observed | CC50 (Panc10.05): 40.3 µM | CC50 (Pa03C): 50.2 µM | oxaliplatin induced loss of myenteric neurons in the colon ([3]; CRC mice): alleviated oxaliplatin induced loss of myenteric neurons | tumor cell killing vs oxaliplatin alone ([3]; oxaliplatin with APX3330): dramatic and significantly increased tumor cell killing
